According to patent publication EP4806898A1, “HETEROARYL DERIVATIVE COMPOUND AND USE THEREOF” (Voronoi Inc., priority 2023, dated 2025):

Key:
recombinant USP1 protein = molecular target: T1, recombinant USP1 protein (Homo sapiens, UniProt O94782, DEL125-138/DEL229-408/DEL608-737); assay: Binding affinity to recombinant USP1 protein by differential scanning fluorimetry; details: compound 100 µM; 0.03 mg/mL USP1 (Δ1-66, Δ125-138, Δ229-408, Δ608-737); Tm with compound minus Tm with DMSO; read-out: ΔTm (°C)
T1 sequence (O94782 with tags, fused parts or gaps DEL125-138/DEL229-408/DEL608-737): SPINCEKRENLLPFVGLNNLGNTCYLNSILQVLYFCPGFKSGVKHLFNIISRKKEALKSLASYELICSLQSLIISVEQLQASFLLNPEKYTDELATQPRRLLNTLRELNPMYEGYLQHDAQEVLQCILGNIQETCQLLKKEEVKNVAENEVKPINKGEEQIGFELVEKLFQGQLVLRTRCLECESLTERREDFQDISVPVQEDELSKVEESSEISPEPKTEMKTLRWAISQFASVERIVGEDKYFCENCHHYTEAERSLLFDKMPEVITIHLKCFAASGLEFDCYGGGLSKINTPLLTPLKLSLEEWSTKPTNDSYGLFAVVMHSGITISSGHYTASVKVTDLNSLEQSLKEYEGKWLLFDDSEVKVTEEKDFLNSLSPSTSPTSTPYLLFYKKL
Method in brief: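 USP1 (Δ1-66, Δ125-138, Δ229-408, Δ608-737) at 0.03 mg/mL with dye in 50 mM Tris-HCl pH 8.0, 150 mM NaCl, 2% glycerol, 1 mM DTT; compounds at 100 µM final. Tm read on real-time PCR instrument; ΔTm = Tm with compound minus Tm with DMSO.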

UWB1.289 cells = assay: Cell proliferation inhibitory activity in BRCA1/2-mutant or HRD-positive cells (Cell Titer-Glo); assay type: cell-based; details: UWB1289; UWB1.289 cells, 144 hours after compound treatment, Cell Titer-Glo, 1.5 nM to 10 µM; read-out: GI50 UWB1.289 BRCA1 mut
Method in brief: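 UWB1.289 cells (1,000/well) in 50% MEBM/50% RPMI1640 exposed to […], final 1.5 nM to 10 µM, for 144 h at 37 °C. Viable cells measured by CellTiter-Glo luminescence; GI50 calculated.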

| Compound | ΔTm at 100 µM (recombinant USP1 protein) [°C] | GI50 (UWB1.289 cells) [nM] |
| --- | --- | --- |
| COc1ncnc(C2CC2)c1-c1ncc2cc(C(=O)N3CC(N(C)C)C3)n(Cc3ccc(-c4nc(C(F)(F)F)cn4C(C)C)cc3)c2n1 [Example 53, (2-(4-cyclopropyl-6-methoxypyrimid in-5-yl)-7-(4-(1-isopropyl-4-(trifluoromethyl)-1H-imidazol-2-yl)benzyl)-7H-pyrrolo[2,3-d]pyrimidin-6-yl) (3-(dimethylamino)azetidin-1-yl)methanone] | > 5 | < 100 |
| COc1ncnc(C2CC2)c1-c1ncc2cc(C(=O)N[C@H](C)CCO)n(Cc3ccc(-c4nc(C(F)(F)F)cn4C(C)C)cc3)c2n1 [Example 83, (R)-2-(4-cyclopropyl-6-methoxypyrimidin-5-yl)-N-(4-hydroxybutan-2-yl)-7-(4-(1-isopropyl-4-(trifluoromethyl)-1H-imidazol-2-yl)benzyl)-7H-pyrrolo[2,3-d]pyrimidine-6-carboxamide] | > 5 | < 100 |
| COc1ncnc(C2CC2)c1-c1ncc2cc(C(=O)N[C@H]3CN(C4CC4)C[C@H]3F)n(Cc3ccc(-c4nc(C(F)(F)F)cn4C)cc3)c2n1 [Example 215, N-((3S,4R)-1-cyclopropyl-4-fluoropyrrolidin-3-yl)-2-(4-cyclopropyl-6-methoxypyrimidin-5-yl)-7-(4-(1-methyl-4-(trifluoromethyl)-1H-imidazol-2-yl)benzyl)-7H-pyrrolo[2,3-d]pyrimidine-6-carboxamide] | > 5 | < 100 |
| COc1ncnc(C2CC2)c1-c1ncc2cc(C(=O)NC3(C)CC3)n(Cc3ccc(-c4nc(C(F)(F)F)cn4C(C)C)cc3)c2n1 [Example 79, 2-(4-cyclopropyl-6-methoxypyrimidin-5-yl)-7-(4-(1-isopropyl-4-(trifluoromethyl)-1H-imidazol-2-yl)benzyl)-N-(1-methylcyclopropyl)-7H-pyrrolo[2,3-d]pyrimidine-6-carboxamide] | > 5 | 100 to 500 |
| COc1ncnc(C2CC2)c1-c1ncc2cc(C(=O)NC(C)(C)CO)n(Cc3ccc(-c4nc(C(F)(F)F)cn4C(C)C)cc3)c2n1 [Example 156, 2-(4-cyclopropyl-6-methoxypyrimidin-5-yl)-N-(1-hydroxy-2-methylpropan-2-yl)-7-(4-(1-isopropyl-4-(trifluoromethyl)-1H-imidazol-2-yl)benzyl)-7H-pyrrolo[2,3-d]pyrimidine-6-carboxamide] | > 5 | < 100 |
| COc1ncnc(C2CC2)c1-c1ncc2cc(C(=O)Nc3ccccc3)n(Cc3ccc(-c4nc(C(F)(F)F)cn4C(C)C)cc3)c2n1 [Example 17, 2-(4-cyclopropyl-6-methoxypyrimidin-5-yl)-7-(4-(1-isopropyl-4-(trifluoromethyl)-1H-imidazol-2-yl)benzyl)-N-phenyl-7H-pyrrolo[2,3-d]pyrimidine-6-carboxamide] | > 5 | < 100 |
| CCNC(=O)c1cc2cnc(-c3c(OC)ncnc3C3CC3)nc2n1Cc1ccc(-c2nc(C(F)(F)F)cn2C(C)C)cc1 [Example 4, 2-(4-cyclopropyl-6-methoxypyrimidin-5-yl)-N-ethyl-7-(4-(1-isopropyl-4-(trifluoromethyl)-1H-imidazol-2-yl)benzyl)-7H-pyrrolo[2,3-d]pyrimidine-6-carboxamide] | > 5 | < 100 |
| COc1ncnc(C2CC2)c1-c1ncc2cc(C(=O)NC3CCN(C)CC3)n(Cc3ccc(-c4nc(C(F)(F)F)cn4C)cc3)c2n1 [Example 153, 2-(4-cyclopropyl-6-methoxypyrimidin-5-yl)-7-(4-(1-methyl-4-(trifluoromethyl)-1H-imidazol-2-yl)benzyl)-N-(1-methylpiperidin-4-yl)-7H-pyrrolo[2,3-d]pyrimidine-6-carboxamide] | > 5 | < 100 |
| COc1ncnc(C2CC2)c1-c1ncc2cc(C(=O)N[C@@H]3CCN(C)C[C@@H]3F)n(Cc3ccc(-c4nc(C(F)(F)F)cn4C)cc3)c2n1 [Example 161, 2-(4-cyclopropyl-6-methoxypyrimidin-5-yl)-N-((3S,4R)-3-fluoro-1-methylpiperidin-4-yl)-7-(4-(1-methyl-4-(trifluoromethyl)-1H-imidazol-2-yl)benzyl)-7H-pyrrolo[2,3-d]pyrimidine-6-carboxamide] | > 5 | < 100 |
| CNC(=O)c1cc2cnc(-c3cccc4c3N(C)CC4)nc2n1Cc1ccc(-c2nc(C(F)(F)F)cn2C)cc1 [Example 193, N-methyl-7-(4-(1-methyl-4-(trifluoromethyl)-1H-imidazol-2-yl)benzyl)-2-(1-methylindolin-7-yl)-7H-pyrrolo[2,3-d]pyrimidine-6-carboxamide] | < 5 | < 100 |
| COc1ncnc(C2CC2)c1-c1ncc2cc(C(=O)NCC3CCC3)n(Cc3ccc(-c4nc(C(F)(F)F)cn4C(C)C)cc3)c2n1 [Example 19, N-(cyclobutylmethyl)-2-(4-cyclopropyl-6-methoxypyrimidin-5-yl)-7-(4-(1-isopropyl-4-(trifluoromethyl)-1H-imidazol-2-yl)benzyl)-7H-pyrrolo[2,3-d]pyrimidine-6-carboxamide] | > 5 | < 100 |
| COc1ncnc(C2CC2)c1-c1ncc2cc(C(=O)NCC3(C)COC3)n(Cc3ccc(-c4nc(C(F)(F)F)cn4C(C)C)cc3)c2n1 [Example 125, 2-(4-cyclopropyl-6-methoxypyrimidin-5-yl)-7-(4-(1-isopropyl-4-(trifluoromethyl)-1H-imidazol-2-yl)benzyl)-N-((3-methyloxetan-3-yl)methyl)-7H-pyrrolo[2,3-d]pyrimidine-6-carboxamide] | > 5 | < 100 |

Further lines, with some results ahead:

| ΔTm at 100 µM (recombinant USP1 protein) [°C] | Compound | GI50 (UWB1.289 cells) [nM] |
| --- | --- | --- |
| > 5 | COc1ncnc(C2CC2)c1-c1ncc2cc(C(=O)NCC(C)C)n(Cc3ccc(-c4nc(C(F)(F)F)cn4C(C)C)cc3)c2n1 [Example 114, 2-(4-cyclopropyl-6-methoxypyrimidin-5-yl)-N-isobutyl-7-(4-(1-isopropyl-4-(trifluoromethyl)-1H-imidazol-2-yl)benzyl)-7H-pyrrolo[2,3-d]pyrimidine-6-carboxamide] | < 100 |
| > 5 | COc1ncnc(C2CC2)c1-c1ncc2cc(C(=O)NC3CC3)n(Cc3ccc(-c4nc(C(F)(F)F)cn4C(C)C)cc3)c2n1 [Example 11, N-cyclopropyl-2-(4-cyclopropyl-6-methoxypyrimidin-5-yl)-7-(4-(1-isopropyl-4-(trifluoromethyl)-1H-imidazol-2-yl)benzyl)-7H-pyrrolo[2,3-d]pyrimidine-6-carboxamide] | < 100 |
| > 5 | COc1ncnc(C2CC2)c1-c1ncc2cc(C(=O)NC3CC3)n(Cc3ccc(-c4nc(C(F)(F)F)cn4C)cc3)c2n1 [Example 150, N-cyclopropyl-2-(4-cyclopropyl-6-methoxypyrimidin-5-yl)-7-(4-(1-methyl-4-(trifluoromethyl)-1H-imidazol-2-yl)benzyl)-7H-pyrrolo[2,3-d]pyrimidine-6-carboxamide] | < 100 |
| > 5 | COc1ncnc(C2CC2)c1-c1ncc2cc(C(=O)NCC(C)(C)O)n(Cc3ccc(-c4nc(C(F)(F)F)cn4C)cc3)c2n1 [Example 205, 2-(4-cyclopropyl-6-methoxypyrimidin-5-yl)-N-(2-hydroxy-2-methylpropyl)-7-(4-(1-methyl-4-(trifluoromethyl)-1H-imidazol-2-yl)benzyl)-7H-pyrrolo[2,3-d]pyrimidine-6-carboxamide] | < 100 |
| > 5 | COc1ncnc(C2CC2)c1-c1ncc2cc(C(=O)N3CC[C@@H](O)C3)n(Cc3ccc(-c4nc(C(F)(F)F)cn4C(C)C)cc3)c2n1 [Example 105, (R) - (2-(4-cyclopropyl-6-methoxypyrimid in-5-yl)-7-(4-(1-isopropyl-4-(trifluoromethyl)-1H-imidazol-2-yl)benzyl)-7H-pyrrolo[2,3-d]pyrimidin-6-yl) (3-hydroxypyrrolidin-1-yl)methanone] | 100 to 500 |
| > 5 | CNC(=O)c1cc2cnc(-c3c(OC)ncnc3C3CC3)nc2n1Cc1ccc(-c2nc(C(F)(F)F)c(OC)n2C)cc1 [Example 214, 2-(4-cyclopropyl-6-methoxypyrimidin-5-yl)-7-(4-(5-methoxy-1-methyl-4-(trifluoromethyl)-1H-imidazol-2-yl)benzyl)-N-methyl-7H-pyrrolo[2,3-d]pyrimidine-6-carboxamide] | < 100 |
| > 5 | CNC(=O)c1cc2cnc(-c3c(OC4CC4)ncnc3C3CC3)nc2n1Cc1ccc(-c2nc(C(F)(F)F)cn2C(C)C)cc1 [Example 130, 2-(4-cyclopropoxy-6-cyclopropylpyrimidin-5-yl)-7-(4-(1-isopropyl-4-(trifluoromethyl)-1H-imidazol-2-yl)benzyl)-N-methyl-7H-pyrrolo[2,3-d]pyrimidine-6-carboxamide] | < 100 |
| > 5 | COc1ncnc(C2CC2)c1-c1ncc2cc(C(=O)NCCCN(C)C)n(Cc3ccc(-c4nc(C(F)(F)F)cn4C(C)C)cc3)c2n1 [Example 33] | < 100 |
